For eight compounds, inhibition in vivo, EC50 and Activity results are on record in ChEMBL document CHEMBL3045521, “Synthesis and evaluation of anti-inflammatory, analgesic, ulcerogenicity and nitric oxide-releasing studies of novel ibuprofen analogs as nonulcerogenic derivatives” (Med Chem Res, 2011).

Data set [1] has as its system Mus musculus. The data set can be described thus: Analgesic activity in Mus musculus (mouse) assessed as inhibition of acetic acid-induced writhing at 49.46 mg/kg, po measured after 5 min for 15 min relative to control. In kind it is functional. For orientation: In writhing tests, fewer writhes than in controls are read as antinociception.
For data set [2], the system named is Rattus norvegicus. The data set can be described thus: Anti-inflammatory activity in Rattus norvegicus Wistar albino (rat) assessed as carrageenan-induced paw edema at 66.69 mg/kg, po administered 1 hr prior to carrageenan-challenge measured at 3 hr relative to control. In kind it is functional. In general terms: The carrageenan paw model is a standard test of acute inflammation.

Data set [3] has as its system Rattus norvegicus. The data set can be described thus: Anti-inflammatory activity in Rattus norvegicus Wistar albino (rat) assessed as carrageenan-induced paw edema at 66.69 mg/kg, po administered 1 hr prior to carrageenan-challenge measured at 1 hr relative to control. In kind it is functional.
The subject of the next data set is Aorta. The data set can be described thus: Vasorelaxant activity in normotensive Rattus norvegicus Wistar albino (rat) aorta assessed as inhibition of norepinephrine-induced contraction. In kind it is functional, tissue-based.
In data set [4] the test system is Rattus norvegicus. The data set can be described thus: Anti-inflammatory activity in Rattus norvegicus Wistar albino (rat) assessed as carrageenan-induced paw edema at 66.69 mg/kg, po administered 1 hr prior to carrageenan-challenge measured at 2 hr relative to control. In kind it is functional.
Data set [5] can be described thus: Induction of nitric oxide release at 10^-4 M after 1 hr by Griess method relative to control. In kind it is physicochemical. As to conditions: 100 µM. In general terms: Nitrite, measured by Griess reagent, commonly stands in for NO production.
In data set [6] the test system is Rattus norvegicus. The data set can be described thus: Anti-inflammatory activity in Rattus norvegicus Wistar albino (rat) assessed as carrageenan-induced paw edema at 51.06 mg/kg, po administered 1 hr prior to carrageenan-challenge measured at 1 hr relative to control. In kind it is functional.
The test system of data set [7] is Mus musculus. The data set can be described thus: Analgesic activity in Mus musculus (mouse) assessed as inhibition of acetic acid-induced writhing at 37.87 mg/kg, po measured after 5 min for 15 min relative to control. In kind it is functional.
The subject of data set [8] is Rattus norvegicus. The data set can be described thus: Anti-inflammatory activity in Rattus norvegicus Wistar albino (rat) assessed as carrageenan-induced paw edema at 51.06 mg/kg, po administered 1 hr prior to carrageenan-challenge measured at 2 hr relative to control. In kind it is functional.
Data set [9] concerns Rattus norvegicus. The data set can be described thus: Anti-inflammatory activity in Rattus norvegicus Wistar albino (rat) assessed as carrageenan-induced paw edema at 51.06 mg/kg, po administered 1 hr prior to carrageenan-challenge measured at 3 hr relative to control. In kind it is functional.
Data set [10] deals with Rattus norvegicus. The data set can be described thus: Gastrointestinal toxicity against Rattus norvegicus Wistar albino (rat) assessed as disruption of mucosal layer at 61.2 mg/kg po by HE-staining based […] microscopic analysis. In kind it is organism-based. Also on record: dose 61.2 mg/kg, route oral. The note with it: in vivo.
Data set [11] relates to Rattus norvegicus. The data set can be described thus: Gastrointestinal toxicity against Rattus norvegicus Wistar albino (rat) assessed as disruption of mucosal layer at 59.64 mg/kg po by HE-staining based […] microscopic analysis. In kind it is organism-based. Also on record: dose 59.64 mg/kg, route oral. As to conditions: in vivo.
The test system of data set [12] is Rattus norvegicus. The data set can be described thus: Anti-inflammatory activity in Rattus norvegicus Wistar albino (rat) assessed as carrageenan-induced paw edema at 49.7 mg/kg, po administered 1 hr prior to carrageenan-challenge measured at 3 hr relative to control. In kind it is functional.
The test system of data set [13] is Rattus norvegicus. The data set can be described thus: Anti-inflammatory activity in Rattus norvegicus Wistar albino (rat) assessed as carrageenan-induced paw edema at 49.7 mg/kg, po administered 1 hr prior to carrageenan-challenge measured at 2 hr relative to control. In kind it is functional.
In data set [14] the test system is Mus musculus. The data set can be described thus: Analgesic activity in Mus musculus (mouse) assessed as inhibition of acetic acid-induced writhing at 37.28 mg/kg, po measured after 5 min for 15 min relative to control. In kind it is functional.
The test system of data set [15] is Rattus norvegicus. The data set can be described thus: Anti-inflammatory activity in Rattus norvegicus Wistar albino (rat) assessed as carrageenan-induced paw edema at 49.7 mg/kg, po administered 1 hr prior to carrageenan-challenge measured at 1 hr relative to control. In kind it is functional.
Data set [16] concerns Rattus norvegicus. The data set can be described thus: Anti-inflammatory activity in Rattus norvegicus Wistar albino (rat) assessed as carrageenan-induced paw edema at 63.98 mg/kg, po administered 1 hr prior to carrageenan-challenge measured at 2 hr relative to control. In kind it is functional.
The subject of data set [17] is Mus musculus. The data set can be described thus: Analgesic activity in Mus musculus (mouse) assessed as inhibition of acetic acid-induced writhing at 47.98 mg/kg, po measured after 5 min for 15 min relative to control. In kind it is functional.
For data set [18], the system named is Rattus norvegicus. The data set can be described thus: Anti-inflammatory activity in Rattus norvegicus Wistar albino (rat) assessed as carrageenan-induced paw edema at 63.98 mg/kg, po administered 1 hr prior to carrageenan-challenge measured at 1 hr relative to control. In kind it is functional.
The test system of data set [19] is Rattus norvegicus. The data set can be described thus: Anti-inflammatory activity in Rattus norvegicus Wistar albino (rat) assessed as carrageenan-induced paw edema at 63.98 mg/kg, po administered 1 hr prior to carrageenan-challenge measured at 3 hr relative to control. In kind it is functional.
The test system of data set [20] is Rattus norvegicus. The data set can be described thus: Anti-inflammatory activity in Rattus norvegicus Wistar albino (rat) assessed as carrageenan-induced paw edema at 48.34 mg/kg, po administered 1 hr prior to carrageenan-challenge measured at 1 hr relative to control. In kind it is functional.
In data set [21] the test system is Mus musculus. The data set can be described thus: Analgesic activity in Mus musculus (mouse) assessed as inhibition of acetic acid-induced writhing at 35.85 mg/kg, po measured after 5 min for 15 min relative to control. In kind it is functional.
Data set [22] has as its system Rattus norvegicus. The data set can be described thus: Anti-inflammatory activity in Rattus norvegicus Wistar albino (rat) assessed as carrageenan-induced paw edema at 48.34 mg/kg, po administered 1 hr prior to carrageenan-challenge measured at 2 hr relative to control. In kind it is functional.
Data set [23] concerns Rattus norvegicus. The data set can be described thus: Anti-inflammatory activity in Rattus norvegicus Wistar albino (rat) assessed as carrageenan-induced paw edema at 48.34 mg/kg, po administered 1 hr prior to carrageenan-challenge measured at 3 hr relative to control. In kind it is functional.
Data set [24] concerns Rattus norvegicus. The data set can be described thus: Gastrointestinal toxicity against Rattus norvegicus Wistar albino (rat) assessed as disruption of mucosal layer at 57.96 mg/kg po by HE-staining based […] microscopic analysis. The note with it: in vivo. In kind it is organism-based. Also on record: dose 57.96 mg/kg, route oral.
Data set [25] deals with Rattus norvegicus. The data set can be described thus: Gastrointestinal toxicity against Rattus norvegicus Wistar albino (rat) assessed as disruption of mucosal layer at 24 mg/kg po by HE-staining based […] microscopic analysis. The note with it: in vivo. Also on record: dose 24 mg/kg, route oral. In kind it is organism-based.
For data set [26], the system named is Mus musculus. The data set can be described thus: Analgesic activity in Mus musculus (mouse) assessed as inhibition of acetic acid-induced writhing at 15 mg/kg, po measured after 5 min for 15 min relative to control. In kind it is functional.
Data set [27] has as its system Rattus norvegicus. The data set can be described thus: Anti-inflammatory activity in Rattus norvegicus Wistar albino (rat) assessed as carrageenan-induced paw edema at 20 mg/kg, po administered 1 hr prior to carrageenan-challenge measured at 2 hr relative to control. In kind it is functional.
In data set [28] the test system is Rattus norvegicus. The data set can be described thus: Anti-inflammatory activity in Rattus norvegicus Wistar albino (rat) assessed as carrageenan-induced paw edema at 20 mg/kg, po administered 1 hr prior to carrageenan-challenge measured at 1 hr relative to control. In kind it is functional.
The test system of data set [29] is Rattus norvegicus. The data set can be described thus: Anti-inflammatory activity in Rattus norvegicus Wistar albino (rat) assessed as carrageenan-induced paw edema at 20 mg/kg, po administered 1 hr prior to carrageenan-challenge measured at 3 hr relative to control. In kind it is functional.

In brackets after ≈: the same amount, converted by molar mass.

As for `CC(C)Cc1ccc(C(C)c2n[nH]c(=S)n2-c2ccc(C(=O)NNC(=O)CCO[N+](=O)[O-])c(C(=O)NNC(=O)CCO[N+](=O)[O-])c2)cc1` (stereo not given), the inhibition in vivo (as a rule, the drop in the measured response relative to a control, in per cent) at 49.46 mg/kg in the data set with Mus musculus [1] was 48.6%. In addition, the inhibition in vivo at 66.69 mg/kg in the data set on Rattus norvegicus [2] came out at 31.9%; with Rattus norvegicus [3] it was 27.9%; in the data set on Rattus norvegicus [4], 29.9%. Besides, the EC50 (as a rule, the concentration that produces a half-maximal response) with Aorta came out at 34.9 µg/mL (≈ 50.7 µM). This compound returned an Activity in [5] of 0.57%.

Turning to `CC(C)Cc1ccc(C(C)c2n[nH]c(=S)n2-c2ccccc2CC(=O)NNC(=O)CCO[N+](=O)[O-])cc1` (stereo not given), the inhibition in vivo at 51.06 mg/kg in the data set with Rattus norvegicus [6] amounted to 51.5%; in the data set with Rattus norvegicus [8], 56.5%; in the data set on Rattus norvegicus [9] it was 61.8%. Moreover, the inhibition in vivo at 37.87 mg/kg with Mus musculus [7] amounted to 56.1%. The EC50 in the data set with Aorta came out at 58.6 µg/mL (≈ 111 µM). For the same compound, the Activity in [5] is 0.32%; with Rattus norvegicus [10], “Non-toxic”.

Regarding `CC(C)Cc1ccc(C(C)c2n[nH]c(=S)n2-c2ccccc2CC(=O)NNC(=O)CO[N+](=O)[O-])cc1` (stereo not given), the Activity entry in the data set with Rattus norvegicus [11] was “Non-toxic”; in [5] it was 0.35%. Moreover, in the data set on Aorta, the EC50 was 55.3 µg/mL (≈ 108 µM). The inhibition in vivo at 49.7 mg/kg in the data set with Rattus norvegicus [12] was determined as 62.8%; with Rattus norvegicus [13], 58.8%; in the data set with Rattus norvegicus [15], 54.5%. Further, in the data set on Mus musculus [14], the inhibition in vivo at 37.28 mg/kg came to 59%.

Regarding `CC(C)Cc1ccc(C(C)c2n[nH]c(=S)n2-c2ccc(C(=O)NNC(=O)CO[N+](=O)[O-])c(C(=O)NNC(=O)CO[N+](=O)[O-])c2)cc1` (stereo not given), the EC50 in the data set on Aorta turned out to be 38.7 µg/mL (≈ 58.6 µM). For the same compound, the results for the inhibition in vivo at 63.98 mg/kg with Rattus norvegicus [16], in the data set with Rattus norvegicus [18] and with Rattus norvegicus [19] were 40.1%, 38.8% and 41.9%, respectively. Moreover, the inhibition in vivo at 47.98 mg/kg in the data set on Mus musculus [17] was found to be 52.6%. This compound also yielded an Activity in data set [5] of 0.42%.

For the compound `CC(C)Cc1ccc(C(C)c2n[nH]c(=S)n2-c2ccc(C(=O)NNC(=O)CCO[N+](=O)[O-])cc2)cc1` (stereo not given), the Activity entry is given as “Non-toxic” in the data set on Rattus norvegicus [11] and 0.39% in [5]. Besides, in the data set on Aorta, the EC50 stood at 30.5 µg/mL (≈ 59.5 µM). The inhibition in vivo at 49.7 mg/kg came to 61.8% in the data set with Rattus norvegicus [12], 57.1% with Rattus norvegicus [13] and 52.1% in the data set with Rattus norvegicus [15]. The inhibition in vivo at 37.28 mg/kg in the data set on Mus musculus [14] worked out at 64.8%.

Turning to `CC(C)Cc1ccc(C(C)c2n[nH]c(=S)n2-c2ccc(C(=O)NNC(=O)CO[N+](=O)[O-])cc2)cc1` (stereo not given), the inhibition in vivo at 48.34 mg/kg was 52.7% in the data set on Rattus norvegicus [20], 56.5% in the data set on Rattus norvegicus [22] and 61.2% in the data set on Rattus norvegicus [23]. Besides, the inhibition in vivo at 35.85 mg/kg in the data set on Mus musculus [21] came to 63.6%. Further, the half-maximal effective concentration (EC50) in the data set on Aorta came out at 42.8 µg/mL (≈ 85.8 µM). The figures for the Activity (in data set [5]; in the data set on Rattus norvegicus [24]) were 0.48% and “Non-toxic”, respectively.

`O=C(O)Cc1ccccc1Nc1c(Cl)cccc1Cl` [DICLOFENAC]: in the data set on Rattus norvegicus [25], the Activity result was “Toxic”.

As for `CC(C)Cc1ccc(C(C)C(=O)O)cc1` (stereo not given) [IBUPROFEN], the inhibition in vivo at 15 mg/kg in the data set on Mus musculus [26] came out at 62.4%. For the same compound, the values for the inhibition in vivo at 20 mg/kg in the data set on Rattus norvegicus [27], in the data set on Rattus norvegicus [28] and with Rattus norvegicus [29] were 58.2%, 53.9% and 62.8%, respectively.
